In patent US12458538B2, “Functional wound healing dressings” (Ambient Biosciences, Inc., priority 2018, dated 2025):
“Also recorded” adds a separate entry of the source.

What was measured:
[1] = Activity of vitrified insulin after reconstitution; conditions: reconstitution by contact with water or a body fluid
[2] = system: C57/BL6J mouse keratinocytes; assay: Transwell migration assay; assay type: cell-based
Procedure: (§1) Two established cell culture models of transwell migration and a scratch wound healing model with freshly isolated C57/BL6J mouse keratinocytes were used. First, the keratinocyte cultures were established by enzymatic separation of keratinocytes from the epidermal layer of mouse skin using a dispase (for isolating epidermal later of skin) and trypsin (for isolating keratinocytes from the epidermis) under gentle agitation. The collected cells were grown in SFM-keratinocyte medium (Life Technologies).
To assess the ability of keratinocytes to migrate under the influence of VEGF, cells were trypsinized, collected by centrifugation and added to the upper chamber of transwell inserts while the No VEGF control or VEGF or VEGF+VEGF inhibitor were added to serum free medium placed in the lower chamber. The cells were allowed to migrate under normal growth conditions. At the end of 24 h, the cells that migrated under the influence of vehicle control or VEGF in lower chamber were counted visually and expressed as percent cell migration.

[3] = system: C57/BL6J mouse keratinocytes; assay: Scratch wound healing assay; assay type: cell-based
Procedure: as §1
To assess the ability of keratinocytes to migrate and heal wound gaps, scratch wounds of uniform dimensions were created across keratinocyte monolayers and the cultures were left for healing in the presence or absence of VEGF or VEGF inhibitor.

[4] = system: TNFα, COL1A1, DSTN, TGFβ, IL-6 and COL3A1 expression in dermal fibroblasts; assay: LPS-induced scar-forming gene expression assay of dermal fibroblasts (qPCR); assay type: cell-based; conditions: LPS 500 ng/ml 3 days; VEGF 10 ng/ml; + control ideal storage, others exposed at 55° C. for 15 days
Procedure: Dermal fibroblasts were treated with lipopolysaccharide LPS (500 ng/ml) or vehicle PBS (No LPS control) for 3 days in the presence of vitrified VEGF (10 ng/ml) that was tested for stability against exposure to 55° C. from days 1-15.
LPS-treated cells exposed to VEGF (10 ng/ml) that underwent thermo-destabilization in the absence of vitrification served as negative control and the cells treated with VEGF that was subjected to neither vitrification nor destabilization served as positive control.
LPS-induced scar-forming gene expression profiles of dermal fibroblasts namely TNFα, COL1A1, DSTN, TGFβ, IL-6 and COL3A1 were measured by quantitative real-time PCR (qPCR), normalized to the expression of β-actin and expressed relative to the levels measured in No LPS control.

| Substance | activity after reconstitution [1] | migration of keratinocytes, transwell ([2]; 24 h, serum free medium in lower chamber) | quantification of cell numbers in the transwell migration assay ([2]; n=3) | number of cells that migrated into the scratch wound area ([3]; n=3) | keratinocyte scratch wound healing ([3]; scratch wounds on confluent keratinocyte monolayers) | LPS-induced scar-forming gene expression [4] |
| --- | --- | --- | --- | --- | --- | --- |
| vitrified insulin: insulin vitrified by the processes described, e.g. electrospun with pullulan and trehalose | indistinguishable from fresh insulin | – | – | – | – | – |
| vascular endothelial growth factor [VEGF] | – | stimulates migration of keratinocytes | dramatic induction of keratinocyte migration | dramatic induction of keratinocyte migration | promote a dynamic healing in the scratch wound area; also recorded: stimulates migration of keratinocytes | strong suppressive effect on scar forming genes |
